Patent US20250376469A1, “INDOLIZINE DERIVATIVES FOR TREATING TRPM3-MEDIATED DISORDERS” (Katholieke Universiteit Leuven, priority 2022, published 2025)

Target: T1, mouse TRPM3α2 (mTRPM3) ion channel (Mus musculus, UniProt J9SQF3)
T1 construct: expressed in transfected cells; host or cells: flip-in HEK293
Experiment: TRPM3 ion channel driven Ca2+ uptake (Fluo-4 AM assay, pregnenolone sulfate stimulated)
Assay type: cell-based
Details: TRPM3 overexpressing flip-in HEK293 cells, channel opened with pregnenolone sulfate (PS) 50 μM, 2.4 mM Ca2+
Protocol: In order to monitor the inhibition of the mouse TRPM3α2 (mTRPM3) ion channel by the compounds of the invention, a cellular system making use of an mTRPM3alpha2 or hTRPM3 overexpressing cell line (flip-in HEK293) was used. The TRPM3 channel was stimulated/opened with Pregnenolone sulfate (PS) (50 μM) which results in Ca^2+ influx.
For mTRPM3, the intracellular Ca^2+ was measured with a Calcium responsive dye, Fluor-4 AM ester (Invitrogen). Cells were cultured until a confluence of 80-90%, washed with Versene (Invitrogen) and detached from the surface by a short incubation with 0.05% Trypsin (Invitrogen). The trypsination process was stopped by the addition of complete cell culture medium (DMEM, glutamax, 10% FCS, NEAA, Pen-Strep). Cells were collected and resuspended in Krebs buffer without Calcium at RT.
Prior the cell seeding (±2000 cells/well into a black, 384 well plate (Greiner)) the diluted compound was added in the assay plate, together with the PS dissolved in Krebs buffer containing Calcium. […] Directly after cell addition the plates were read on an Envision fluorescence reader (Perkin Elmer) by an Excitation of 485 nm and emission at 535 nm.
Channel inhibition was calculated compared to a non-PS stimulated control versus a condition stimulated with PS (50 μM) with vehicle. The ability of a the compounds of the invention to inhibit this activity was determined as: Percentage inhibition=[1−((RFU determined for sample with test compound present−RFU determined for sample with positive control inhibitor) divided by (RFU determined in the presence of vehicle−RFU determined for sample with positive control inhibitor))]*100.
The activities of the Example compounds […] tested are depicted in the table below. The activity ranges A, B and C refer to IC50 values in the Fluo-4 AM assay as follows: […]

T1 sequence (J9SQF3 1-1709 isoform J9SQF3-12): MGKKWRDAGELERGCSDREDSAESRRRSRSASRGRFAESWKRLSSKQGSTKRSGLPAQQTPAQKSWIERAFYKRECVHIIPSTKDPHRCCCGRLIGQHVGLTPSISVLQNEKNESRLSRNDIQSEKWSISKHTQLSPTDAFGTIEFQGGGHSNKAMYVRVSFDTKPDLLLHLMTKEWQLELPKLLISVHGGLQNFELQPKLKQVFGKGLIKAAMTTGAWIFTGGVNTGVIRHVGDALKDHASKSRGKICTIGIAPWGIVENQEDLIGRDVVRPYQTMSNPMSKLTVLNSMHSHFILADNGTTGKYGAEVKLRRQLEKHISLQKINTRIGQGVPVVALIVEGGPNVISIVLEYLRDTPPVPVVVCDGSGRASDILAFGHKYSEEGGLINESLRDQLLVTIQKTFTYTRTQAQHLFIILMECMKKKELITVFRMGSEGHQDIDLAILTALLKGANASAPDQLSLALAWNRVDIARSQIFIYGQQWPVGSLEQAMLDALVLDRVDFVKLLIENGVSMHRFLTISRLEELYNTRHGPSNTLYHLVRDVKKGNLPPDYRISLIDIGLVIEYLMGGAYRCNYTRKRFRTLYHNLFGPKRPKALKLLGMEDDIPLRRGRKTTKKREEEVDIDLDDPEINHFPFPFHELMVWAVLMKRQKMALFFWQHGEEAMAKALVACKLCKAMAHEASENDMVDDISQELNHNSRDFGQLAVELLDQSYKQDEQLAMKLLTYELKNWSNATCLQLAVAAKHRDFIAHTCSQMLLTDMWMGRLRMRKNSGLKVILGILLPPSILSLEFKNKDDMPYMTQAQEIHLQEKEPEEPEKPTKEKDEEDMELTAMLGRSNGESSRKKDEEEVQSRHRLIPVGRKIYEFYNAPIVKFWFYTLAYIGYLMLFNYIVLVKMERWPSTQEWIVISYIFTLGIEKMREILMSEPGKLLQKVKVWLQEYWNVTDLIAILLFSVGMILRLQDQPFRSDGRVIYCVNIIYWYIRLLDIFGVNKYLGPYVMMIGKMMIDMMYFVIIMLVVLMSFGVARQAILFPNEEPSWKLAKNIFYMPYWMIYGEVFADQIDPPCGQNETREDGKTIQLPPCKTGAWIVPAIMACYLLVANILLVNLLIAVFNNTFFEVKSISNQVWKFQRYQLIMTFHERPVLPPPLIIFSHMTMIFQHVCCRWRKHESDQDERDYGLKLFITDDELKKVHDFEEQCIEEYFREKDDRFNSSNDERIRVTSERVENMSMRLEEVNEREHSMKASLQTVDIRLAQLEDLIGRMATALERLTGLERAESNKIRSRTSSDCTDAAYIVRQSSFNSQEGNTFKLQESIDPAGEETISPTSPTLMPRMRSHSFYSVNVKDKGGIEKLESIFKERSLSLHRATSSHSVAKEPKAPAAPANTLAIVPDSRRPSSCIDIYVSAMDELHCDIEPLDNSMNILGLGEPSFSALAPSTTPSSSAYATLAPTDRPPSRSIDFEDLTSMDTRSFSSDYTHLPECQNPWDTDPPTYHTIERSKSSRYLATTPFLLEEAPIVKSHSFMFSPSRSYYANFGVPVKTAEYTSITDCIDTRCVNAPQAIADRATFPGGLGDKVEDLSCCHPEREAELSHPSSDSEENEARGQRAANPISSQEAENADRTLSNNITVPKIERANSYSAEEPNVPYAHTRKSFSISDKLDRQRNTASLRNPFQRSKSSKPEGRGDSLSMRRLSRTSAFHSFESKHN

SMILES	IC50 [nM]
Cc1ncc(COc2ccc3cc(C)c(C(=O)NC(C)(CO)C(N)=O)n3c2)s1 (single isomer, unassigned) [Cpd 029 - En1, 3-hydroxy-2-methyl-2-({2-methyl-6-[(2-methyl-1,3-thiazol-5-yl)methoxy]indolizin-3-yl}formamido)propanamide]	< 1000
Cc1ncc(COc2ccc3cc(C)c(C(=O)NC(C)(CO)C(N)=O)n3c2)s1 (single isomer, unassigned) [Cpd 029 - En2, 3-hydroxy-2-methyl-2-({2-methyl-6-[(2-methyl-1,3-thiazol-5-yl)methoxy]indolizin-3-yl}formamido)propanamide]	1000 to 20000
COc1ncccc1COc1ccc2cc(C)c(C(=O)NC3(CO)CCNC3=O)n2c1 (single isomer, unassigned) [Cpd 038 - En1]	< 1000
COc1ncccc1COc1ccc2cc(C)c(C(=O)NC3(CO)CCNC3=O)n2c1 (single isomer, unassigned) [Cpd 038 - En2]	1000 to 20000
Cc1cc2ccc(OCc3cccnc3C(F)(F)F)cn2c1C(=O)NC1(CO)CCNC1=O (single isomer, unassigned) [Cpd 039 - En1]	< 1000
Cc1cc2ccc(OCc3cccnc3C(F)(F)F)cn2c1C(=O)NC1(CO)CCNC1=O (single isomer, unassigned) [Cpd 039 - En2]	1000 to 20000
Cc1cc2ccc(OCc3c(F)cnn3C)cn2c1C(=O)NC1(CO)CCNC1=O (single isomer, unassigned) [Cpd 040 - En1]	< 1000
Cc1cc2ccc(OCc3c(F)cnn3C)cn2c1C(=O)NC1(CO)CCNC1=O (single isomer, unassigned) [Cpd 040 - En2]	1000 to 20000
Cc1cc2ccc(OCc3cnccn3)cn2c1C(=O)NC(CO)CC(F)(F)F (single isomer, unassigned) [Cpd 041 - En1]	1000 to 20000
Cc1cc2ccc(OCc3cnccn3)cn2c1C(=O)NC(CO)CC(F)(F)F (single isomer, unassigned) [Cpd 041 - En2]	> 20000
COc1ncccc1COc1ccc2cc(C)c(C(=O)NC(CO)CC(F)(F)F)n2c1 (single isomer, unassigned) [Cpd 043 - En1]	< 1000
Cc1cc2ccc(OCc3cccnc3C(F)(F)F)cn2c1C(=O)NC(CO)CC(F)(F)F (single isomer, unassigned) [Cpd 044 - En1]	> 20000
Cc1cc2ccc(OCc3cccnc3C(F)(F)F)cn2c1C(=O)NC(CO)CC(F)(F)F (single isomer, unassigned) [Cpd 044 - En2]	< 1000
Cc1cc2ccc(OCc3c(F)cnn3C)cn2c1C(=O)NC(CO)CC(F)(F)F (single isomer, unassigned) [Cpd 045 - En1]	1000 to 20000
Cc1cc2ccc(OCc3c(F)cnn3C)cn2c1C(=O)NC(CO)CC(F)(F)F (single isomer, unassigned) [Cpd 045 - En2]	> 20000
Cc1cc2ccc(OCc3cnccn3)cn2c1C(=O)NC1(CO)CCNC1=O (single isomer, unassigned) [Cpd 046 - En1]	< 1000
Cc1cc2ccc(OCc3cnccn3)cn2c1C(=O)NC1(CO)CCNC1=O (single isomer, unassigned) [Cpd 046 - En2]	> 20000
Cc1cc2ccc(OCc3scnc3C)cn2c1C(=O)NC1(CO)CCOCC1 [Cpd 001, N-[4-(hydroxymethyl)oxan-4-yl]-2-methyl-6-[(4-methyl-1,3-thiazol-5-yl)methoxy]indolizine-3-carboxamide]	1000 to 20000
Cc1cc2ccc(OCc3ccccc3F)cn2c1C(=O)NC1CNCCC1(F)F (stereo not drawn) [Cpd 008, N-(4,4-difluoropiperidin-3-yl)-6-[(2-fluorophenyl)methoxy]-2-methylindolizine-3-carboxamide]	1000 to 20000
Cc1cc2ccc(OCC3CC3)cn2c1C(=O)NC(C)(CO)CO [Cpd 020, 6-(cyclopropylmethoxy)-N-(1,3-dihydroxy-2-methylpropan-2-yl)-2-methylindolizine-3-carboxamide]	< 1000
Cc1cc2ccc(OCC(F)F)cn2c1C(=O)NC(C)(CO)CO [Cpd 025, 6-(2,2-difluoroethoxy)-N-(1,3-dihydroxy-2-methylpropan-2-yl)-2-methylindolizine-3-carboxamide]	1000 to 20000
Cc1ncc(COc2ccc3cc(C)c(C(=O)NC(C)(CO)CO)n3c2)s1 [Cpd 030, N-(1,3-dihydroxy-2-methylpropan-2-yl)-2-methyl-6-[(2-methyl-1,3-thiazol-5-yl)methoxy]indolizine-3-carboxamide]	< 1000

Results, then the compound that gave them:

IC50 [nM]	SMILES
1000 to 20000	COCC(C)(CO)NC(=O)c1c(C)cc2ccc(OCc3ccccn3)cn12 (single isomer, unassigned) [Cpd 032 - En1]
< 1000	COCC(C)(CO)NC(=O)c1c(C)cc2ccc(OCc3ccccn3)cn12 (single isomer, unassigned) [Cpd 032 - En2]
1000 to 20000	Cc1cc2ccc(OCc3ccccn3)cn2c1C(=O)NC(CO)C(N)=O (single isomer, unassigned) [Cpd 033 - En1]
< 1000	Cc1cc2ccc(OCc3ccccn3)cn2c1C(=O)NC(CO)C(N)=O (single isomer, unassigned) [Cpd 033 - En2]
< 1000	Cc1cc2ccc(OCc3ccccc3)cn2c1C(=O)NC(CO)C(N)=O (single isomer, unassigned) [Cpd 034 - En1]
< 1000	Cc1cc2ccc(OCc3ccccc3)cn2c1C(=O)NC(CO)C(N)=O (single isomer, unassigned) [Cpd 034 - En2]
< 1000	Cc1cc2ccc(OCc3ccccc3)cn2c1C(=O)NC(C)(CO)CC(F)F (single isomer, unassigned) [Cpd 035 - En1]
1000 to 20000	Cc1cc2ccc(OCc3ccccc3)cn2c1C(=O)NC(C)(CO)CC(F)F (single isomer, unassigned) [Cpd 035 - En2]
< 1000	Cc1cc2ccc(OCc3ccccn3)cn2c1C(=O)NC(C)(CO)CC(F)F (single isomer, unassigned) [Cpd 036 - En1]
1000 to 20000	Cc1cc2ccc(OCc3ccccn3)cn2c1C(=O)NC(C)(CO)CC(F)F (single isomer, unassigned) [Cpd 036 - En2]
< 1000	Cc1cc2ccc(OCc3cccnc3)cn2c1C(=O)NC1(CO)CCNC1=O (single isomer, unassigned) [Cpd 037 - En1]
1000 to 20000	Cc1cc2ccc(OCc3cccnc3)cn2c1C(=O)NC1(CO)CCNC1=O (single isomer, unassigned) [Cpd 037 - En2]
< 1000	Cc1cc2ccc(OCc3cccnc3)cn2c1C(=O)NC(CO)CC(F)(F)F (single isomer, unassigned) [Cpd 042 - En1]
1000 to 20000	Cc1cc2ccc(OCc3cccnc3)cn2c1C(=O)NC(CO)CC(F)(F)F (single isomer, unassigned) [Cpd 042 - En2]
> 20000	COc1ncccc1COc1ccc2cc(C)c(C(=O)NC(CO)CC(F)(F)F)n2c1 (single isomer, unassigned) [Cpd 043 - En2]
< 1000	Cc1cc2ccc(OCc3ccccc3F)cn2c1C(=O)N[C@@H](C)C(N)=O [Cpd 002, (2S)-2-({6-[(2-fluorophenyl)methoxy]-2-methylindolizin-3-yl}formamido)propanamide]
< 1000	Cc1cc2ccc(OCc3ccccc3F)cn2c1C(=O)N[C@@H](CO)C(N)=O [Cpd 003, (2S)-2-({6-[(2-fluorophenyl)methoxy]-2-methylindolizin-3-yl}formamido)-3-hydroxypropanamide]
< 1000	Cc1cc2ccc(OCc3ccccc3F)cn2c1C(=O)NC(C)(CO)CO [Cpd 006, N-(1,3-dihydroxy-2-methylpropan-2-yl)-6-[(2-fluorophenyl)methoxy]-2-methylindolizine-3-carboxamide]
< 1000	Cc1cc2ccc(OCc3ccccn3)cn2c1C(=O)NC(C)(CO)CO [Cpd 015, N-(1,3-dihydroxy-2-methylpropan-2-yl)-2-methyl-6-[(pyridin-2-yl)methoxy]indolizine-3-carboxamide]
1000 to 20000	Cc1ncc(COc2ccc3cc(C)c(C(=O)NC(C)C(N)=O)n3c2)s1 (stereo not drawn) [Cpd 031, 2-({2-methyl-6-[(2-methyl-1,3-thiazol-5-yl)methoxy]indolizin-3-yl}formamido)propanamide]
